This passage reports IC50 results from ChEMBL document CHEMBL5727378, “Benzenesulfonamide derivatives as inverse agonists of retinoid-related orphan receptor gamma (RORγ(T))” (2019).

This experiment deals with T1, Nuclear receptor ROR-gamma (Homo sapiens, UniProt P51449).
T1 sequence (P51449 whole entry): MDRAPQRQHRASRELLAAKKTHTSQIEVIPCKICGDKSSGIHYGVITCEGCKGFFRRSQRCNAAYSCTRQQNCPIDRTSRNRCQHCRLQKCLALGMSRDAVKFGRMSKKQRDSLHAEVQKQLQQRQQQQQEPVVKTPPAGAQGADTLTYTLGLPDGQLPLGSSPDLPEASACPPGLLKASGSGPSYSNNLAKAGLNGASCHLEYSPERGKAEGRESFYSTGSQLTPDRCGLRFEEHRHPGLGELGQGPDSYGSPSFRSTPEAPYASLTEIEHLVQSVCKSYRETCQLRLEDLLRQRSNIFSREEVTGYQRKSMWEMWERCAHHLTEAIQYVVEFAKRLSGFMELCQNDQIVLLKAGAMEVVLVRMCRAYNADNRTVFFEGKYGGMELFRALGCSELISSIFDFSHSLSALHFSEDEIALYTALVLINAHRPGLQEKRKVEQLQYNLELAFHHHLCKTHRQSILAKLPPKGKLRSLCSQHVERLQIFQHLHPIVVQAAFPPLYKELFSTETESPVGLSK
Put plainly: GAL4-RORgamma Transactivation: The RORγ transactivation model was developed from the line HG5LN, which is a HeLa line that stably expresses a luciferase reporter gene controlled by a pentamer of the GAL4 recognition domain of yeast and of a β-globin promoter. The HG5LN line was stably transfected by the DNA-binding domain (DBD) of GAL4 fused to the ROR gamma ligand-binding domain (LBD). Molecules that inhibit the ROR gamma constitutive activity reduce the luciferase expression, thus leading to a reduction in the emitted luminescence.The cells are seeded in 384-well plates (5000 cells in 45 μL/well of culture medium containing 10% fetal calf serum) and incubated for 4 hours at 37° C., 5% CO2. 5 μL of the test molecules (compounds described in the tables described above) are then added to each well and the plates are incubated for 18 hours at a temperature of 37° C. under 5% of CO2. 20 μL of luciferase substrate (Promega) are added to each well and the luminescence emitted is read by a microplate reader.The luminescence units (“RLU”) are normalized by positive controls (“POS” containing a saturated concentration of benzenesulfonamide, N-(2,2,2-trifluoroethyl)-N-[4-[2,2,2-trifluoro-1-hydroxy-1-(trifluoromethyl)ethyl]phenyl]) and negative controls (“NEG” containing DMSO): % inhibition=((RLU−NEG)*100)/(POS−NEG). The IC50 values are calculated from a 4-parameter logistic model using the XLFit software (IDBS).

As to `CCc1ccc(N(CC(C)C)S(=O)(=O)c2ccc3c(c2)N(CC2CCOCC2)CCS3(=N)=O)cc1` (stereo not drawn), the IC50 (usually the concentration needed to halve the response being measured) is above 1000 nM.
The figure for `CCc1ccc(N(CC(C)C)S(=O)(=O)c2ccc(NC3CCNC(=O)C3)c(S(C)(=N)=O)c2)cc1` (stereo not drawn) is above 1000 nM.
In the case of `CCc1ccc(N(CC(C)C)S(=O)(=O)c2ccc(OCC3CCSCC3)c(S(C)(=N)=O)c2)cc1` (stereo not drawn), the half-maximal inhibitory concentration (IC50) is below 100 nM.
